Laboratory results published in the supplement of paper PMC10307832.

Tests used:
Experiment in all cases: relative viability (nuclei count vs DMSO), 5 days (fraction); higher = more cells survive
[1] = compound: CCCS(=O)(=O)Nc1ccc(F)c(C(=O)c2c[nH]c3ncc(-c4ccc(Cl)cc4)cc23)c1F [Vemurafenib] + Nc1nc2[nH]cc(CCc3ccc(C(=O)N[C@@H](CCC(=O)O)C(=O)O)cc3)c2c(=O)[nH]1 [Pemetrexed] (partner 0.2 µM)
In short: (§1)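 Dosing by pin tool came one day after lung cancer cell lines were seeded in 1536-well plates, using either one drug or a fixed anchor-drug dose plus five library-drug doses (not always all listed) in √10 steps. After 5 days, nuclei were counted on 4× images. Relative viability is treated-well nuclei count divided by vehicle-well nuclei count, and values are medians of duplicate plates.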

[2] = compound: COc1cccc2cc(-c3nc([C@H]4CC[C@H](C(=O)O)CC4)n4ncnc(N)c34)[nH]c12 [OSI-027] + Cc1nc(NC(=O)N2CCC[C@H]2C(N)=O)sc1-c1ccnc(C(C)(C)C(F)(F)F)c1 [Alpelisib] (partner 2 µM)
In short: as §1

[3] = compound: Cc1nc(NC(=O)N2CCC[C@H]2C(N)=O)sc1-c1ccnc(C(C)(C)C(F)(F)F)c1 [Alpelisib] + NC(=O)Nc1cc(-c2cccc(F)c2)sc1C(=O)N[C@H]1CCCNC1 [AZD7762] (partner 0.2 µM)
In short: as §1

[4] = compound: COc1cccc2cc(-c3nc([C@H]4CC[C@H](C(=O)O)CC4)n4ncnc(N)c34)[nH]c12 [OSI-027] + Nc1ncn([C@H]2C[C@H](O)[C@@H](CO)O2)c(=O)n1 [Decitabine] (partner 2 µM)
In short: as §1

Cell Line | relative viability ([1]; first compound 0.03162 µM) | relative viability ([1]; first compound 0.1 µM) | relative viability ([1]; first compound 0.3162 µM) | relative viability ([1]; first compound 1 µM) | relative viability ([2]; first compound 0.01 µM) | relative viability ([2]; first compound 0.03162 µM) | relative viability ([2]; first compound 0.1 µM) | relative viability ([2]; first compound 0.3162 µM) | relative viability ([2]; first compound 1 µM) | relative viability ([3]; first compound 0.04 µM) | relative viability ([3]; first compound 0.1265 µM) | relative viability ([3]; first compound 0.4 µM) | relative viability ([3]; first compound 1.265 µM) | relative viability ([3]; first compound 4 µM) | relative viability ([4]; first compound 0.01 µM) | relative viability ([4]; first compound 0.03162 µM) | relative viability ([4]; first compound 0.1 µM) | relative viability ([4]; first compound 0.3162 µM) | relative viability ([4]; first compound 1 µM)
NCI-H2347 | 0.413 | 0.441 | 0.357 | 0.412 | 1.11 | 0.899 | 0.974 | 0.717 | 0.416 | 0.756 | 0.661 | 0.815 | 0.81 | 0.764 | 0.639 | 0.635 | 0.621 | 0.577 | 0.454
PC-14 | 0.147 |  | 0.126 | 0.134 | 0.855 | 0.641 | 1.01 | 1.03 | 0.65 | 0.324 | 0.236 | 0.448 | 0.307 | 0.35 | 0.208 | 0.278 | 0.239 | 0.231 | 0.217
LXF-289 | 0.871 | 0.868 | 0.903 | 0.635 | 1.05 | 1.05 | 0.991 | 0.909 | 0.496 | 1.05 | 1.1 | 1.21 | 1.18 | 1.27 | 0.378 | 0.355 | 0.379 | 0.367 | 0.349
NCI-H596 | 0.501 | 0.494 | 0.405 | 0.583 | 0.432 | 0.534 | 0.503 | 0.503 | 0.354 | 0.895 | 1.05 | 1.03 | 0.725 | 0.472 | 1.1 | 1.08 | 1.1 | 1.03 | 0.82
NCI-H358 | 0.208 | 0.179 | 0.189 | 0.193 | 0.98 | 0.774 | 0.757 | 0.478 | 0.297 | 0.506 | 0.386 | 0.497 | 0.301 | 0.295 | 0.191 | 0.182 | 0.199 | 0.232 | 0.178
NCI-H1355 | 1.03 | 0.961 | 1.02 | 1.04 | 0.764 | 0.723 | 0.677 | 0.345 | 0.24 | 0.792 | 0.78 | 0.704 | 0.636 | 0.553 | 0.329 | 0.437 | 0.356 | 0.376 | 0.243
HCC-78 | 0.925 | 0.922 | 0.932 | 0.921 | 0.337 | 0.3 | 0.248 | 0.14 | 0.163 | 0.726 | 0.515 | 0.293 | 0.362 | 0.377 | 0.77 | 0.749 | 0.616 | 0.547 | 0.457
NCI-H322M | 0.587 |  | 0.597 | 0.537 | 0.0629 | 0.772 | 0.775 | 0.539 | 0.521 | 0.594 | 0.556 | 0.47 | 0.424 | 0.458 | 0.66 | 0.658 | 0.694 | 0.662 | 0.542
